Counter-ions that a name gives are not always drawn.
Target: human σ1 receptor (Homo sapiens, UniProt Q99720)
Test: biochemical
Design: μ and σ1 dual binding: scale not given here
Details: combined class from Ki at human σ1 receptor (A1) and Ki at human μ-opioid receptor (A2); radioligand binding
Protocol: Biological Activity Pharmacological Study Human σ1 Receptor Radioligand Assay
The assay was carried out with 7 μg of membrane suspension, 5 nM of [^3H](+)-pentazocine in either absence or presence of either buffer or 10 μM Haloperidol for total and non-specific binding, respectively. Binding buffer contained Tris-HCl 50 mM at pH 8. Plates were incubated at 37° C. for 120 minutes. After the incubation period, the reaction mix was then transferred to MultiScreen HTS, FC plates (Millipore), filtered and plates were washed 3 times with ice-cold 10 mM Tris-HCL (pH7.4). Filters were dried and counted at approximately 40% efficiency in a MicroBeta scintillation counter (Perkin-Elmer) using EcoScint liquid scintillation cocktail

Sequence of human σ1 receptor (Q99720 whole entry): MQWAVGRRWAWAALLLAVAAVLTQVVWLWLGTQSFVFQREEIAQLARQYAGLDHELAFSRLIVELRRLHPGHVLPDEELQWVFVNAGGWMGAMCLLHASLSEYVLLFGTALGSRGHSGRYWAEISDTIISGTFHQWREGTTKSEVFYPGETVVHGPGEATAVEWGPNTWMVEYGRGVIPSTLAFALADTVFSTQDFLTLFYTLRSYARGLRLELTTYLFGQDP

Row | Compound | μ and σ1 dual binding
1 | Cl.O=C(Cc1ccccc1)N1CCOC2(CCN(CCc3ccccc3)CC2)C1 [Example 4, 1-(9-phenethyl-1-oxa-4,9-diazaspiro[5.5]undecan-4-yl)-2-phenylethanone hydrochloride] | ++
2 | Cl.O=C(c1cccnc1)N1CCOC2(CCN(CCc3ccccc3)CC2)C1 [Example 5, (9-phenethyl-1-oxa-4,9-diazaspiro[5.5]undecan-4-yl)(pyridin-3-yl)methanone hydrochloride] | ++
3 | O=C(c1cscn1)N1CCOC2(CCN(CCc3ccccc3)CC2)C1 [Example 12, (9-phenethyl-1-oxa-4,9-diazaspiro[5.5]undecan-4-yl)(thiazol-4-yl)methanone] | ++
4 | Cl.O=C(c1nccs1)N1CCOC2(CCN(CCc3ccccc3)CC2)C1 [Example 13, (9-phenethyl-1-oxa-4,9-diazaspiro[5.5]undecan-4-yl)(thiazol-2-yl)methanone hydrochloride] | ++
5 | Cl.O=C(c1cncs1)N1CCOC2(CCN(CCc3ccccc3)CC2)C1 [Example 14, (9-phenethyl-1-oxa-4,9-diazaspiro[5.5]undecan-4-yl)(thiazol-5-yl)methanone hydrochloride] | ++
6 | Cl.O=C(Cc1cccnc1)N1CCOC2(CCN(CCc3ccccc3)CC2)C1 [Example 15, 1-(9-phenethyl-1-oxa-4,9-diazaspiro[5.5]undecan-4-yl)-2-(pyridin-3-yl)ethanone hydrochloride] | ++
7 | Cl.O=C(CC1CCOCC1)N1CCOC2(CCN(CCc3ccccc3)CC2)C1 [Example 16, 1-(9-phenethyl-1-oxa-4,9-diazaspiro[5.5]undecan-4-yl)-2-(tetrahydro-2H-pyran-4-yl)ethanone hydrochloride] | ++
8 | Cl.O=C(Cc1ccccn1)N1CCOC2(CCN(CCc3ccccc3)CC2)C1 [Example 19, 1-(9-phenethyl-1-oxa-4,9-diazaspiro[5.5]undecan-4-yl)-2-(pyridin-2-yl)ethanone hydrochloride] | ++
9 | Cl.O=C(CC1CC1)N1CCOC2(CCN(CCc3ccccc3)CC2)C1 [Example 20, 2-cyclopropyl-1-(9-phenethyl-1-oxa-4,9-diazaspiro[5.5]undecan-4-yl)ethanone hydrochloride] | ++
10 | Cl.O=C(c1ncccc1F)N1CCOC2(CCN(CCc3ccccc3)CC2)C1 [Example 25, (3-fluoropyridin-2-yl)(9-phenethyl-1-oxa-4,9-diazaspiro[5.5]undecan-4-yl)methanone hydrochloride] | ++
11 | Cl.O=C(c1cncc(F)c1)N1CCOC2(CCN(CCc3ccccc3)CC2)C1 [Example 26, (5-fluoropyridin-3-yl)(9-phenethyl-1-oxa-4,9-diazaspiro[5.5]undecan-4-yl)methanone hydrochloride] | ++
12 | CC1CN(C(=O)c2ncccc2F)CC2(CCN(CCc3ccccc3)CC2)O1.Cl (stereo not shown) [Example 32, (3-fluoropyridin-2-yl)(2-methyl-9-phenethyl-1-oxa-4,9-diazaspiro[5.5]undecan-4-yl)methanone hydrochloride] | ++
13 | CC1CN(C(=O)c2cncc(C(F)(F)F)c2)CC2(CCN(CCc3ccccc3)CC2)O1.Cl (stereo not shown) [Example 36, (2-methyl-9-phenethyl-1-oxa-4,9-diazaspiro[5.5]undecan-4-yl)(5-(trifluoromethyl)pyridin-3-yl)methanone hydrochloride] | ++
14 | CC1CN(C(=O)c2ccccc2)CC2(CCN(CCc3cccc(C(F)(F)F)n3)CC2)O1 (stereo not shown) [Example 38, (2-methyl-9-(2-(6-(trifluoromethyl)pyridin-2-yl)ethyl)-1-oxa-4,9-diazaspiro[5.5]undecan-4-yl)(phenyl)methanone dihydrochloride] | ++
15 | CC1CN(C(=O)c2ccccc2)CC2(CCN(CCc3ncccc3C(F)(F)F)CC2)O1.Cl (stereo not shown) [Example 41, (2-methyl-9-(2-(3-(trifluoromethyl)pyridin-2-yl)ethyl)-1-oxa-4,9-diazaspiro[5.5]undecan-4-yl)(phenyl)methanone hydrochloride] | ++
16 | CC1CN(C(=O)c2ccccc2)CC2(CCN(CCc3ccc(C(F)(F)F)cn3)CC2)O1.Cl (stereo not shown) [Example 42, (2-methyl-9-(2-(5-(trifluoromethyl)pyridin-2-yl)ethyl)-1-oxa-4,9-diazaspiro[5.5]undecan-4-yl)(phenyl)methanone hydrochloride] | ++
17 | CC1CN(C(=O)c2ccccn2)CC2(CCN(CCc3ncccc3Cl)CC2)O1.Cl (stereo not shown) [Example 48, (9-(2-(3-chloropyridin-2-yl)ethyl)-2-methyl-1-oxa-4,9-diazaspiro[5.5]undecan-4-yl)(pyridin-2-yl)methanone hydrochloride] | ++
18 | Cl.O=C(c1ccccc1)N1CCOC2(CCN(CCc3ccccn3)CC2)C1 [Example 63, phenyl(9-(2-(pyridin-2-yl)ethyl)-1-oxa-4,9-diazaspiro[5.5]undecan-4-yl)methanone hydrochloride] | ++
19 | Cl.O=C(c1ccccc1)N1CCOC2(CCN(CCc3ccc(C(F)(F)F)nc3)CC2)C1 [Example 70, phenyl(9-(2-(6-(trifluoromethyl)pyridin-3-yl)ethyl)-1-oxa-4,9-diazaspiro[5.5]undecan-4-yl)methanone hydrochloride] | ++
20 | CC1CN(C(=O)c2ccccn2)CC2(CCN(CCc3cccc(OC(F)(F)F)c3)CC2)O1 (stereo not shown) [Example 80, (2-methyl-9-(3-(trifluoromethoxy)phenethyl)-1-oxa-4,9-diazaspiro[5.5]undecan-4-yl)(pyridin-2-yl)methanone dihydrochloride] | ++
21 | Cl.O=S(=O)(c1ccccc1)N1CCOC2(CCN(CCc3ccccc3)CC2)C1 [Example 83, 9-phenethyl-4-(phenylsulfonyl)-1-oxa-4,9-diazaspiro[5.5]undecane hydrochloride] | ++
22 | CC1CN(C(=O)c2ccccc2)CC2(CCN(CCc3ccccn3)CC2)O1.Cl (stereo not shown) [Example 87, (2-methyl-9-(2-(pyridin-2-yl)ethyl)-1-oxa-4,9-diazaspiro[5.5]undecan-4-yl)(phenyl)methanone hydrochloride] | ++
23 | CCC(=O)N1CC(C)OC2(CCN(CCc3ccccc3F)CC2)C1.Cl (stereo not shown) [Example 91, 1-(9-(2-fluorophenethyl)-2-methyl-1-oxa-4,9-diazaspiro[5.5]undecan-4-yl)propan-1-one hydrochloride] | ++

Same assay, conditions: combined class from Ki at human σ1 receptor (A1) and Ki at human μ-opioid receptor (A2); radioligand binding; read-out: μ and σ1 dual binding

Row | Compound | Ki
24 | O=C(C1CCOCC1)N1CCOC2(CCN(CCc3ccccc3)CC2)C1 [Example 18, (9-phenethyl-1-oxa-4,9-diazaspiro[5.5]undecan-4-yl)(tetrahydro-2H-pyran-4-yl)methanone] | > 500 nM
25 | CC1CN(C(=O)c2ccccc2F)CC2(CCN(CCc3ncccc3F)CC2)O1 (stereo not shown) [Example 59, (2-fluorophenyl)(9-(2-(3-fluoropyridin-2-yl)ethyl)-2-methyl-1-oxa-4,9-diazaspiro[5.5]undecan-4-yl)methanone dihydrochloride] | > 500 nM
26 | O=C(c1ccccc1)N1CCOC2(CCN(CCc3cccnc3)CC2)C1 [Example 71, phenyl(9-(2-(pyridin-3-yl)ethyl)-1-oxa-4,9-diazaspiro[5.5]undecan-4-yl)methanone dihydrochloride] | > 500 nM
27 | CC1CN(C(=O)c2ccccc2)CC2(CCN(CCc3ccc(S(N)(=O)=O)cc3)CC2)O1 (stereo not shown) [Example 75, 4-(2-(4-benzoyl-2-methyl-1-oxa-4,9-diazaspiro[5.5]undecan-9-yl)ethyl)benzene-sulfonamide] | > 500 nM
28 | CC1CN(C(=O)c2ccc(Cl)cn2)CC2(CCN(CCc3csc(NC(=O)OC(C)(C)C)n3)CC2)O1 (stereo not shown) [Example 78, tert-butyl (4-(2-(4-(5-chloropicolinoyl)-2-methyl-1-oxa-4,9-diazaspiro[5.5]undecan-9-yl)ethyl)thiazol-2-yl)carbamate] | > 500 nM
29 | CC1CN(C(=O)c2ccccc2)CC2(CCN(CCc3csc(NC(=O)OC(C)(C)C)n3)CC2)O1 (stereo not shown) [Example 79, tert-butyl (4-(2-(4-benzoyl-2-methyl-1-oxa-4,9-diazaspiro[5.5]undecan-9-yl)ethyl)thiazol-2-yl)carbamate] | > 500 nM
30 | CC(C)CCN1CCC2(CC1)CN(C(=O)c1ccccc1)CC(C)O2 (stereo not shown) [Example 86, (9-isopentyl-2-methyl-1-oxa-4,9-diazaspiro[5.5]undecan-4-yl)(phenyl)methanone hydrochloride] | > 500 nM
31 | CC(C)OCCN1CCC2(CC1)CN(C(=O)c1ccccc1)CC(C)O2 (stereo not shown) [Example 88, (9-(2-isopropoxyethyl)-2-methyl-1-oxa-4,9-diazaspiro[5.5]undecan-4-yl)(phenyl)methanone hydrochloride] | > 500 nM
32 | CC1CN(C(=O)c2ccccc2)CC2(CCN(CC(=O)N3CCOCC3)CC2)O1 (stereo not shown) [Example 89, 2-(4-benzoyl-2-methyl-1-oxa-4,9-diazaspiro[5.5]undecan-9-yl)-1-morpholinoethanone hydrochloride] | > 500 nM
33 | CC1CN(C(=O)c2ccccc2)CC2(CCN(CC(=O)N3CCCCC3)CC2)O1 (stereo not shown) [Example 90, 2-(4-benzoyl-2-methyl-1-oxa-4,9-diazaspiro[5.5]undecan-9-yl)-1-(piperidin-1-yl)ethanone hydrochloride] | > 500 nM
34 | O=C(c1ccccc1)N1CCOC2(CCN(CCc3cccc([N+](=O)[O-])c3)CC2)C1 [Example 97, (9-(3-nitrophenethyl)-1-oxa-4,9-diazaspiro[5.5]undecan-4-yl)(phenyl)methanone] | > 500 nM
